Measured values taken from patent US9556159B2, “Renin inhibitor” (MITSUBISHI TANABE PHARMA CORPORATION, priority 2012, dated 2017).

target: T1, Recombinant human renin (Homo sapiens, UniProt P00797); experiment: Inhibitory activity against human renin (fluorogenic peptide substrate); format: biochemical; conditions: 37° C. for 1 hour, read-out: IC50
T1 sequence (P00797 67-406): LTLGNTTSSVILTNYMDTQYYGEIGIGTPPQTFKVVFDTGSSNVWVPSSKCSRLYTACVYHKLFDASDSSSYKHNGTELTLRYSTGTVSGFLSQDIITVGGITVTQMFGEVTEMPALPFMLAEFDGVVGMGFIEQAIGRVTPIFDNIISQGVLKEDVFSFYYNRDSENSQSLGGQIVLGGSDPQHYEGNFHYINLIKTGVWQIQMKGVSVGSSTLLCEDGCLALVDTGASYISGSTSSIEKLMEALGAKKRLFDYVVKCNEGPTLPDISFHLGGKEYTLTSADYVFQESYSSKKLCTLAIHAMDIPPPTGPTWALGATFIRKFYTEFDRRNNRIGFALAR

IC50 [nM] | Compound
8.3 | COc1ccc([C@@H](C)N(C(=O)[C@H]2CNCCO2)C2CC2)cc1CCCNC(C)=O [Example 27]
8.8 | COCCCCn1cc([C@H](C)N(C(=O)[C@H]2CNCCO2)C2CC2)c2nccc(OC)c21 [Example 51]
0.5 | COC(=O)NCCCn1nc([C@@H](C)N(C(=O)[C@H]2CNCCO2)C2CC2)c2ccc(C3CC3)nc21 [Example 82]
0.3 | COC[C@@H]1CNC[C@H](C(=O)N(C2CC2)[C@H](C)c2cc(CCCNC(=O)OC)nc(OC)c2)O1 [Example 2, methyl (3-{4-[(1R)-1-(cyclopropyl{[(2R,6S)-6-(methoxymethyl)morpholin-2-yl]carbonyl}amino)ethyl]-6-methoxypyridin-2-yl}propyl)carbamate]
0.7 | COC(=O)NCCCn1nc([C@@H](C)N(C(=O)[C@H]2CNCCO2)C2CC2)c2ccc(OC)cc21 [Example 41]
2.8 | COC(=O)NCCCc1cc([C@@H](C)N(C(=O)[C@H]2CNCCO2)C2CC2)cc(Cl)n1 [Example 98]
1.2 | COCc1ccc2c([C@@H](C)N(C(=O)[C@H]3CNCCO3)C3CC3)nn(CCCNC(=O)OC)c2n1 [Example 105]
4.5 | CCC(=O)NCCCc1cc([C@@H](C)N(C(=O)[C@H]2CNCCO2)C2CC2)ccc1OC [Example 68]
2.5 | CCOc1ccnc2c([C@@H](C)N(C(=O)[C@H]3CNCCO3)C3CC3)cn(CCCCOC)c12 [Example 101]
0.5 | COCCCCn1cc([C@@H](C)N(C(=O)[C@H]2CNCCO2)C2CC2)c2ncc(C3CC3)cc21 [Example 36]
1.3 | COC(=O)NCCCn1nc([C@@H](C)N(C(=O)[C@H]2CNCCO2)C2CC2)c2ccc(CO)cc21 [Example 63]
2.1 | COCCCn1cc(CCCNC(=O)OC)c2cnc([C@@H](C)N(C(=O)[C@H]3CNCCO3)C3CC3)cc21 [Example 83]
0.7 | CCOc1ccc([C@@H](C)N(C(=O)[C@H]2CNCCO2)C2CC2)cc1CCCNC(=O)OC [Example 106]
0.6 | COC(=O)NCCCc1cc([C@@H](C)N(C(=O)[C@H]2CNC[C@@H](C(=O)OC)O2)C2CC2)sc1-c1ccccc1 [Example 3, methyl (2S,6R)-6-{cyclopropyl[(1R)-1-(4-{3-[(methoxycarbonyl)amino]propyl}-5-phenylthiophen-2-yl)ethyl]carbamoyl}morpholine-2-carboxylate]

same assay, conditions: 50% inhibitory concentration (IC50) against human renin, 37° C. for 1 hour

Compound | IC50 [nM]
COCCOc1cc([C@@H](C)N(C(=O)[C@H]2CNC[C@@H](COC)O2)C2CC2)cc(CCCNC(=O)OC)n1 [Example 383] | 1.3
CCc1cc([C@@H](C)N(C(=O)[C@H]2CNCCO2)C2CC2)nc2ccccc12 [Example 212] | 4.6
CCc1nc([C@@H](C)N(C(=O)[C@H]2CN[C@@H](C)CO2)C2CC2)cc2c1ncn2CCCOC [Example 389] | 6.1
CCc1nc([C@@H](C)N(C(=O)[C@H]2CNC[C@@H](C)O2)C2CC2)cc2c1ncn2CCCOC [Example 392] | 0.7
COC(=O)NCCCc1nc([C@@H](C)N(C(=O)[C@H]2CNC[C@@H](C)O2)C2CC2)sc1-c1cccc(Cl)c1 [Example 376] | 4.7
COc1ccc2nc([C@@H](C)N(C(=O)[C@H]3CNCCO3)C3CC3)cc(CCCNC=O)c2c1 [Example 157] | 3.4
COC[C@@H]1CNC[C@H](C(=O)N(C2CC2)[C@@H](C)c2nn(CCCNC(=O)OC)c(-c3ccccn3)c2C)O1 [Example 337] | 1.2
COC[C@@H]1CNC[C@H](C(=O)N(C2CC2)[C@H](C)c2cc(CCCNC(=O)OC)n(C3CCOCC3)n2)O1 [Example 303] | 0.8
C=C(c1sc([C@@H](C)N(C(=O)[C@H]2CNCCO2)C2CC2)cc1CCCNC(=O)OC)C(F)(F)F [Example 401] | 2.7
COCCCc1cc([C@@H](C)N(C(=O)[C@H]2CNC[C@@H](C)O2)C2CC2)cc(CCCNC(=O)OC)n1 [Example 373] | 0.8
CCc1cn(CCCOC)c2cc([C@@H](C)N(C(=O)[C@H]3CNCCO3)C3CC3)nc(Cl)c12 [Example 130] | 1.5
COC(=O)NCCCn1nc([C@@H](C)N(C(=O)[C@H]2CNCCO2)C2CC2)c2c1CCCC2 [Example 189] | 0.9
COC(=O)NCCCc1cc([C@@H](C)N(C(=O)[C@H]2CNCCO2)C2CC2)cnc1O[C@H]1CCOC1 [Example 443] | 2
COCCCc1cn(C)c2c(C)nc([C@@H](C)N(C(=O)[C@H]3CNCCO3)C3CC3)cc12 [Example 113] | 1.4
COC(=O)NCCCc1cc([C@@H](C)N(C(=O)[C@H]2CNCCO2)C2CC2)sc1-c1cc(F)cc(F)c1O [Example 275] | 0.9
C=C(C)c1sc(C(C)N(C(=O)[C@H]2CNCCO2)C2CC2)cc1CCCNC(=O)OC (stereo partly shown) [Example 411] | 2.2
COC(=O)NCCCn1nc([C@@H](C)N(C(=O)[C@H]2CNC[C@@H](C(C)(C)O)O2)C2CC2)c2ccc(C)nc21 [Example 293] | 7.7
COC(=O)NCCCc1cc([C@@H](C)N(C(=O)[C@H]2CN[C@@H](C)CO2)C2CC2)nn1-c1ccccc1 [Example 355] | 0.8
COCCCn1cc(COC)c2c(C(C)C)nc([C@@H](C)N(C(=O)[C@H]3CNCCO3)C3CC3)cc21 [Example 153] | 2.2
COC(=O)NCCCc1cc(C(C)N(C(=O)[C@H]2CNCCO2)C2CC2)sc1-c1cnc2[nH]ccc2c1 (stereo partly shown) [Example 410] | 6.7
COC(=O)NCCCc1cc([C@@H](C)N(C(=O)[C@H]2CNCCO2)C2CC2)nc2ccoc12 [Example 167] | 4.1
CCc1nc([C@@H](C)N(C(=O)[C@H]2CNCCO2)C2CC2)cc2c1c(C#N)cn2CCCOC [Example 161] | 0.7
COC(=O)NCCCc1sc([C@@H](C)N(C(=O)[C@H]2CNCCO2)C2CC2)cc1Br [Example 438] | 2.4
CCc1cc([C@@H](C)N(C(=O)[C@H]2CNCCO2)C2CC2)nc2c1cnn2CCCOC [Example 379] | 8.9
CCn1nc([C@@H](C)N(C(=O)[C@H]2CNCCO2)C2CC2)cc1CCCNC(=O)OC [Example 209] | 2.1
COC(=O)NCCCc1cc([C@@H](C)N(C(=O)[C@H]2CNCCO2)C2CC2)cc(N(C)S(C)(=O)=O)n1 [Example 362] | 5
COC(=O)NCCCc1cc([C@H](C)N(C(=O)[C@H]2CNC[C@@H](CF)O2)C2CC2)nn1C1CCOCC1 [Example 340] | 0.7
COC(=O)NC/C=C/c1cc([C@@H](C)N(C(=O)[C@H]2CN[C@@H](C)CO2)C2CC2)nn1-c1ccccc1 [Example 358] | 5.7
CCc1nc([C@@H](C)N(C(=O)[C@H]2CNCCO2)C2CC2)cc2c1ccn2Cc1ccccc1 [Example 147] | 2.5

Next, values leading:

IC50 [nM] | Compound
0.3 | COC(=O)NCCCc1cc([C@@H](C)N(C(=O)[C@H]2CNCCO2)C2CC2)sc1-c1ccccc1NS(C)(=O)=O [Example 269]
0.3 | COC(=O)NCCCc1cc([C@@H](C)N(C(=O)[C@H]2CNCCO2)C2CC2)sc1-c1cccc(C)n1 [Example 226]
0.5 | COC(=O)NCCCc1cc([C@@H](C)N(C(=O)[C@H]2CNCCO2)C2CC2)nn1-c1ccccc1C [Example 222]
0.1 | COC(=O)NCCCc1cc([C@@H](C)N(C(=O)[C@H]2CNCCO2)C2CC2)sc1-c1ccc(F)cn1 [Example 235]
0.5 | COC(=O)NCCCc1cc([C@@H](C)N(C(=O)[C@H]2CNCCO2)C2CC2)sc1-c1ccccc1-c1nnn[nH]1 [Example 270]
0.5 | COC(=O)NCCCn1cc([C@@H](C)N(C(=O)[C@H]2CNCCO2)C2CC2)nc1C(C)(C)C [Example 215]
0.3 | COC(=O)NCCCc1cc([C@@H](C)N(C(=O)[C@H]2CNCCO2)C2CC2)nn1-c1ccccc1 [Example 183]
0.5 | COC[C@H]1CO[C@@H](C(=O)N(C2CC2)[C@H](C)c2cn(CCCNC(=O)OC)c(-c3ccc(F)cc3)n2)CN1 [Example 279]
0.6 | COC[C@@H]1CNC[C@H](C(=O)N(C2CC2)[C@H](C)c2cc(CCCNC(=O)OC)n(C(C)C)n2)O1 [Example 301]
0.6 | COC(=O)NCCCn1nc([C@@H](C)N(C(=O)[C@H]2CNCCO2)C2CC2)cc1-c1ccc(C)nc1 [Example 180]
0.6 | COC(=O)NCCCn1cc([C@@H](C)N(C(=O)[C@H]2CNCCO2)C2CC2)nc1C1CCOCC1 [Example 291]
0.5 | COC[C@H]1CO[C@@H](C(=O)N(C2CC2)[C@H](C)c2cn(CCCNC(=O)OC)c(C3CCCCC3)n2)CN1 [Example 289]
0.6 | CCc1nc([C@@H](C)N(C(=O)[C@H]2CNC[C@@H](COC)O2)C2CC2)cc2c1ncn2CCCOC [Example 394]
0.5 | COC(=O)NCCCn1nc([C@@H](C)N(C(=O)[C@H]2CNCCO2)C2CC2)cc1C(C)C [Example 188]
0.4 | COC(=O)NCCCc1cc([C@@H](C)N(C(=O)[C@H]2CNCCO2)C2CC2)sc1-c1ccc(C)nc1 [Example 228]
0.4 | COC(=O)NCCCn1nc([C@@H](C)N(C(=O)[C@H]2CNCCO2)C2CC2)c(C)c1-c1ccccn1 [Example 220]
0.3 | COC(=O)NCCCc1cc([C@@H](C)N(C(=O)[C@H]2CNC[C@@H](C)O2)C2CC2)nn1-c1cccc(F)c1 [Example 359]
0.6 | COC[C@@H]1CNC[C@H](C(=O)N(C2CC2)[C@H](C)c2cn(CCCNC(=O)OC)c(-c3ccc(F)cc3)n2)O1 [Example 277]
0.5 | COC(=O)NCCCn1nc([C@@H](C)N(C(=O)[C@H]2CNCCO2)C2CC2)cc1-c1ccc(C)cn1 [Example 184]
0.4 | COC[C@@H]1CNC[C@H](C(=O)N(C2CC2)[C@H](C)c2cn(CCCNC(=O)OC)c(C3CCCCC3)n2)O1 [Example 290]
0.2 | COC(=O)NCC(F)Cn1nc([C@@H](C)N(C(=O)[C@H]2CNCCO2)C2CC2)cc1-c1ccccc1 (stereo partly shown) [Example 199]
